Source: PubChem BioAssay (NCI)
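Growth conditions: 96-well plates. Treatment: test compound, 48 hours, 5 concentrations. Analysis: linear interpolation between bracketing concentrations; unreached endpoints set to highest concentration. TGI: concentration producing complete growth inhibition.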

What was measured:
Assay in all cases: growth of human tumour cells (NCI), 48 h
SW-620 colon = test system: SW-620 colon
786-0 renal = test system: 786-0 renal
NCI-H460 lung = test system: NCI-H460 lung
MCF7 breast = test system: MCF7 breast
MALME-3M melanoma = test system: MALME-3M melanoma
ACHN renal = test system: ACHN renal
SF-268 CNS = test system: SF-268 CNS
UO-31 renal = test system: UO-31 renal
COLO 205 colon = test system: COLO 205 colon
RPMI-8226 leukemia = test system: RPMI-8226 leukemia
OVCAR-5 ovarian = test system: OVCAR-5 ovarian
NCI/ADR-RES ovarian = test system: NCI/ADR-RES ovarian
MOLT-4 leukemia = test system: MOLT-4 leukemia
KM12 colon = test system: KM12 colon
NCI-H522 lung = test system: NCI-H522 lung
SF-539 CNS = test system: SF-539 CNS
OVCAR-8 ovarian = test system: OVCAR-8 ovarian
RXF 393 renal = test system: RXF 393 renal
BT-549 breast = test system: BT-549 breast
IGROV1 ovarian = test system: IGROV1 ovarian
UACC-257 melanoma = test system: UACC-257 melanoma
T-47D breast = test system: T-47D breast
MDA-MB-435 = test system: MDA-MB-435
HCT-116 colon = test system: HCT-116 colon
DU-145 prostate = test system: DU-145 prostate
SF-295 CNS = test system: SF-295 CNS
NCI-H23 lung = test system: NCI-H23 lung
SNB-75 CNS = test system: SNB-75 CNS
EKVX NSCLC = test system: EKVX NSCLC
SR leukemia = test system: SR leukemia
LOX IMVI melanoma = test system: LOX IMVI melanoma
M14 melanoma = test system: M14 melanoma
TK-10 renal = test system: TK-10 renal
UACC-62 melanoma = test system: UACC-62 melanoma
MDA-N = test system: MDA-N
HOP-62 NSCLC = test system: HOP-62 NSCLC
CCRF-CEM leukemia = test system: CCRF-CEM leukemia
HL-60(TB) leukemia = test system: HL-60(TB) leukemia
HCT-15 colon = test system: HCT-15 colon
SK-MEL-5 melanoma = test system: SK-MEL-5 melanoma
HS 578T breast = test system: HS 578T breast
OVCAR-3 ovarian = test system: OVCAR-3 ovarian
CAKI-1 renal = test system: CAKI-1 renal
SK-MEL-2 melanoma = test system: SK-MEL-2 melanoma
OVCAR-4 ovarian = test system: OVCAR-4 ovarian
SNB-19 CNS = test system: SNB-19 CNS
SK-OV-3 ovarian = test system: SK-OV-3 ovarian
SN12C renal = test system: SN12C renal
HOP-92 NSCLC = test system: HOP-92 NSCLC
A498 renal = test system: A498 renal
A549 NSCLC = test system: A549 NSCLC
PC-3 prostate = test system: PC-3 prostate
U251 CNS = test system: U251 CNS
HT29 colon = test system: HT29 colon
NCI-H226 lung = test system: NCI-H226 lung
HCC-2998 colon = test system: HCC-2998 colon
SK-MEL-28 melanoma = test system: SK-MEL-28 melanoma
MDA-MB-231 breast = test system: MDA-MB-231 breast

Compound: COc1ccc(NC(=O)CSC(=O)c2ccccc2)c(SCCSSCCSc2cc(OC)ccc2NC(=O)CSC(=O)c2ccccc2)c1
- TGI (SW-620 colon): > 100 µM
- TGI (786-0 renal): > 100 µM
- TGI (NCI-H460 lung): > 100 µM
- TGI (MCF7 breast): > 100 µM
- TGI (MALME-3M melanoma): > 100 µM
- TGI (ACHN renal): > 100 µM
- TGI (SF-268 CNS): > 100 µM
- TGI (UO-31 renal): > 100 µM
- TGI (COLO 205 colon): 24.2 µM
- TGI (RPMI-8226 leukemia): > 100 µM
- TGI (OVCAR-5 ovarian): > 100 µM
- TGI (NCI/ADR-RES ovarian): > 100 µM
- TGI (MOLT-4 leukemia): > 100 µM
- TGI (KM12 colon): > 100 µM
- TGI (NCI-H522 lung): > 100 µM
- TGI (SF-539 CNS): > 100 µM
- TGI (OVCAR-8 ovarian): > 100 µM
- TGI (RXF 393 renal): > 100 µM
- TGI (BT-549 breast): > 100 µM
- TGI (IGROV1 ovarian): > 100 µM
- TGI (UACC-257 melanoma): > 100 µM
- TGI (T-47D breast): > 100 µM
- TGI (MDA-MB-435): > 100 µM
- TGI (HCT-116 colon): > 100 µM
- TGI (DU-145 prostate): > 100 µM
- TGI (SF-295 CNS): > 100 µM
- TGI (NCI-H23 lung): > 100 µM
- TGI (SNB-75 CNS): > 100 µM
- TGI (EKVX NSCLC): > 100 µM
- TGI (SR leukemia): > 100 µM
- TGI (LOX IMVI melanoma): > 100 µM
- TGI (M14 melanoma): > 100 µM
- TGI (TK-10 renal): > 100 µM
- TGI (UACC-62 melanoma): > 100 µM
- TGI (MDA-N): > 100 µM
- TGI (HOP-62 NSCLC): > 100 µM
- TGI (CCRF-CEM leukemia): > 100 µM
- TGI (HL-60(TB) leukemia): > 100 µM
- TGI (HCT-15 colon): > 100 µM
- TGI (SK-MEL-5 melanoma): > 100 µM
- TGI (HS 578T breast): > 100 µM
- TGI (OVCAR-3 ovarian): > 100 µM
- TGI (CAKI-1 renal): > 100 µM
- TGI (SK-MEL-2 melanoma): > 100 µM
- TGI (OVCAR-4 ovarian): 83.7 µM
- TGI (SNB-19 CNS): > 100 µM
- TGI (SK-OV-3 ovarian): > 100 µM
- TGI (SN12C renal): > 100 µM
- TGI (HOP-92 NSCLC): > 100 µM
- TGI (A498 renal): > 100 µM
- TGI (A549 NSCLC): > 100 µM
- TGI (PC-3 prostate): > 100 µM
- TGI (U251 CNS): > 100 µM
- TGI (HT29 colon): > 100 µM
- TGI (NCI-H226 lung): > 100 µM

Compound: COC(=O)C1=C(C)NC(C)=C(C(=O)OC)C1c1cccc(/[N+]([O-])=C/c2ccccc2)c1
- TGI (SW-620 colon): 38 µM
- TGI (786-0 renal): 31.5 µM
- TGI (NCI-H460 lung): > 100 µM
- TGI (MCF7 breast): 34.3 µM
- TGI (MALME-3M melanoma): 29.9 µM
- TGI (ACHN renal): 31.6 µM
- TGI (SF-268 CNS): > 100 µM
- TGI (UO-31 renal): > 100 µM
- TGI (COLO 205 colon): 30.5 µM
- TGI (RPMI-8226 leukemia): > 100 µM
- TGI (OVCAR-5 ovarian): > 100 µM
- TGI (NCI/ADR-RES ovarian): 58 µM
- TGI (MOLT-4 leukemia): 68 µM
- TGI (KM12 colon): > 100 µM
- TGI (NCI-H522 lung): 30.2 µM
- TGI (SF-539 CNS): > 100 µM
- TGI (OVCAR-8 ovarian): 32.7 µM
- TGI (HCC-2998 colon): > 100 µM
- TGI (RXF 393 renal): 30.3 µM
- TGI (BT-549 breast): 30.3 µM
- TGI (IGROV1 ovarian): > 100 µM
- TGI (SK-MEL-28 melanoma): 31.6 µM
- TGI (UACC-257 melanoma): 40.5 µM
- TGI (T-47D breast): 41.6 µM
- TGI (MDA-MB-435): 35.7 µM
- TGI (HCT-116 colon): 30.4 µM
- TGI (DU-145 prostate): > 100 µM
- TGI (MDA-MB-231 breast): 32 µM
- TGI (SF-295 CNS): > 100 µM
- TGI (NCI-H23 lung): > 100 µM
- TGI (SNB-75 CNS): > 100 µM
- TGI (EKVX NSCLC): > 100 µM
- TGI (SR leukemia): 62 µM
- TGI (LOX IMVI melanoma): > 100 µM
- TGI (M14 melanoma): 35 µM
- TGI (TK-10 renal): > 100 µM
- TGI (UACC-62 melanoma): > 100 µM
- TGI (MDA-N): 31.6 µM
- TGI (HOP-62 NSCLC): > 100 µM
- TGI (CCRF-CEM leukemia): 44.8 µM
- TGI (HL-60(TB) leukemia): 71 µM
- TGI (HCT-15 colon): 44.9 µM
- TGI (SK-MEL-5 melanoma): > 100 µM
- TGI (HS 578T breast): > 100 µM
- TGI (OVCAR-3 ovarian): 31.6 µM
- TGI (CAKI-1 renal): 32.3 µM
- TGI (SK-MEL-2 melanoma): > 100 µM
- TGI (OVCAR-4 ovarian): 30.2 µM
- TGI (SNB-19 CNS): > 100 µM
- TGI (SK-OV-3 ovarian): > 100 µM
- TGI (HOP-92 NSCLC): 38 µM
- TGI (A549 NSCLC): > 100 µM
- TGI (PC-3 prostate): > 100 µM
- TGI (U251 CNS): > 100 µM
- TGI (HT29 colon): 87.4 µM
- TGI (NCI-H226 lung): > 100 µM
